Measurements reported in patent US9951055B2, “Thiazole-based inhibitors of scavenger receptor BI” (THE BROAD INSTITUTE, INC., priority 2012, dated 2018).

What was measured:
SR-BI [1] = target: T1, SR-BI (Mus musculus, UniProt Q61009); test: 125I-HDL binding assay; set-up: expressed in transfected cells
T1 sequence (Q61009 1-509): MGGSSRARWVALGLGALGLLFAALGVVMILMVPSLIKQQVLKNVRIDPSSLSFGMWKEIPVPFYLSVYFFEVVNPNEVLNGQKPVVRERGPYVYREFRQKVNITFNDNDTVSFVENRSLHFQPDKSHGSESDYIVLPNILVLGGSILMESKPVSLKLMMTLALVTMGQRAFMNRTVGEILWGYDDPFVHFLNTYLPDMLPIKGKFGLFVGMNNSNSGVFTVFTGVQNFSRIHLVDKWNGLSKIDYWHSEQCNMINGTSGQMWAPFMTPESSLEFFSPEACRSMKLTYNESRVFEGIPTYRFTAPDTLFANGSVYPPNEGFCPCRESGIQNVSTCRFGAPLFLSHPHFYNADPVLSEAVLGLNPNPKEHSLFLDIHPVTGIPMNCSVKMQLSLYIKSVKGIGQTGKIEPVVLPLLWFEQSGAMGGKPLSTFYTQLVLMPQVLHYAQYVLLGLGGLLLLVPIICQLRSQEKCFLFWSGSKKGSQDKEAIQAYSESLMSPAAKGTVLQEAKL
Procedure: In a binding assay, ^125I-HDL binding to cells (4° C. or 37° C.) was measured for 2 h in the absence (total activity) or presence (nonspecific activity) of a 40-fold excess of unlabeled HDL. Stably transfected cells were seeded in the wells of 24-well plates (50,000 cells per well) in Ham's F12 medium containing 2 mM L-glutamine, 50 units/mL penicillin per 50 μg/mL streptomycin (medium A) supplemented with 5% (vol/vol) FBS and 0.25 mg/mL G418 (medium B) on day 0, and binding assays were performed on day 2. The cells were washed twice with prewarmed (37° C.) medium A plus 0.5% (wt/vol) BSA (medium C) prior to adding ^125I-HDL. For binding assays performed at 4° C., the assay plates were removed from the incubator, precooled for 30 min on ice in a cold room (4° C.), and then washed twice with cold (4° C.) medium C supplemented with 10 mM Hepes, pH 7.4, prior to adding ^125I-HDL. Specific binding or uptake is the difference between total and nonspecific activities. In assays using small molecule inhibitors (all incubations at 37° C.), immediately prior to incubation with ^125I-HDL, the cells were washed twice with medium A, preincubated with the small molecules for 1 h, and then incubated with radiolabeled lipoproteins as described above, all in medium C plus 0.5% (vol/vol) DMSO in the presence of the indicated concentrations of small molecules.

SR-BI [2] = target: T1, SR-BI; test: Radioactive HDL uptake assay (wild type SR-BI); assay type: cell-based, murine; set-up: expressed in transfected cells; host or cells: ldlA[mSR-BI]; (CHO ldlA7 derivative lacking the LDL receptor); settings: [3H]cholesteryl ester HDL; read-out: average IC50, radiolabeled version of the uptake assay
From the text: Radioactive HDL Uptake Assay (wild type SR-BI) (SA 8: AID No. 588836)
The goal of this assay is to verify compounds that disrupt the lipid uptake from HDL particles to SR-BI scavenger receptor-expressing cells using an alternative means of labeling HDL particles and avoiding any type of fluorescence measurement. To measure this binding event, HDL particles are labeled with [^3H]cholesteryl ester and added to mSR-BI expressing cells. Cells take up the radioactive lipids from HDL via SR-BI in 2 to 3 hours. After significant uptake of the lipids from HDL, the radiolabel can be detected by liquid scintillation counting. The level of radioactivity correlates with the amount of HDL lipid uptake. The uptake of lipid from the HDL particles particles can be inhibited by the compound BLT-1 or when co-treated with an excess of unlabeled HDL. The ldlA[mSR-BI]-expressing cells utilized in the assay are from a Chinese Hamster Ovary (CHO) cell line lacking expression of the LDL receptors and overexpressing the scavenger receptor, SR-BI. Inhibitors of SR-BI and HDL lipid uptake will have a reduction in liquid scintillation counts.

[3] = Cell cytotoxicity assay (CellTiter-Glo); assay type: cell-based, Chinese hamster; settings: Chinese hamster, ldlA[mSR-BI] cells; after 24 hours of treatment
Procedure: It is possible that a compound will cause cells to decrease HDL-mediated DiI uptake due to nonspecific consequences of cellular toxicity, representing a second class of false positive hits. The cells were treated with compounds for 3 hours or 24 hours, and then cell viability was measured using the CellTiter-Glo Assay (Promega), a luciferase-based reagent that measures cellular ATP levels. The compounds were tested at different concentrations to determine IC50 values. […] Compounds that were active in the primary assay but toxic below 30 μM at 24 hours (but nontoxic at 3 hours) were still considered. […] Data were normalized against DMSO and the positive control (1 μM BLT-1) in Genedata Assay Analyzer.
All available dry powder samples of the remaining, non-quenching compounds were procured from commercial sources and purities were determined. The compounds obtained were then retested in the primary assay and in the cytotoxicity assays. We wanted to rule out any compounds that were cytotoxic, especially in the 3-hour time span of the primary DiI-HDL uptake assay. Therefore, compounds were tested in ldlA[mSR-BI]cells for cytotoxicity at 3 hours and 24 hours using the CellTiter-Glo assay (Promega) that measures cellular ATP as a marker of cell viability. […] Compounds were screened for inhibition of endocytosis using labeled transferrin, which is known to bind the transferrin receptor, enter cells by clathrin-mediated endocytosis, and move to endosomes before being recycled to the cell surface. The BLT compounds have also been tested for potential interference with endocytosis and show no such activity.

Stability in PBS = assay type: physicochemical; settings: PBS (1% DMSO), over 48 hours
Procedure: The stability of the probe in PBS (1% DMSO) was measured over 48 hours. We noticed that the concentration of the probe fluctuated through the course of the assay (data not shown). We believe that this fluctuation is due to the low solubility of the probe. Thus, we decided to determine the amount of undissolved probe present in the well after it was treated with PBS for a given length of time, relative to the amount of undissolved probe at the start of the assay. The wells were centrifuged and the supernatant was removed after various time points, then acetonitrile was added to dissolve the remaining solid in the wells, and the amount of probe was quantified. […] The stability of the probe was confirmed by measuring stability in human plasma, with >99% remaining after a 5-hour incubation period. […] FIG. 5 provides a tablular summary of Known Probe (ML278) Properties Computed from Structure.

COCC(=O)N1CCc2cc(-c3csc(NC(=O)c4cc(OC)cc(OC)c4)n3)ccc21 [Compound 137, 3,5-Dimethoxy-N-(4-(1-(2-methoxyacetyl)indolin-5-yl)thiazol-2-yl)benzamide]
IC50 (SR-BI [1]; 37° C., 1 h preincubation with compound, read-out: IC50): 5.7 nM
IC50 (SR-BI [1]; range, read-out: measured range of IC50): 0.93 to 6 nM
IC50 (SR-BI [2]): 1000 nM
EC50 at 24 h [3]: > 35000 nM
stability in PBS (Stability in PBS): stable to PBS
